Measured values as given in ChEMBL document CHEMBL5154741, “Antibacterial alkylguanidino ureas: Molecular simplification approach, searching for membrane-based MoA” (Eur J Med Chem, 2022).

Legend:
[1] = Apparent permeability of the compound across bacterial inner membrane mimic PC-phospholipids in PBS buffer at pH 7.4 incubated for 5 hrs in presence of 1,3-bis(8-carbamimidamidooctyl)-1,3-bis({8-[N'-(cyclopropylmethyl)carbamimidamido]octyl})urea by PAMPA based UV-Vis spectrophotometric analysis
[2] = Apparent permeability of the compound across bacterial inner membrane mimic pure POPG in PBS buffer at pH 7.4 incubated for 5 hrs in presence of 1,1-bis({6-[N'-(cyclopropylmethyl)carbamimidamido]hexyl})-3-{8-[N'-(cyclopropylmethyl)carbamimidamido]octyl}-3-octylurea by PAMPA based UV-Vis spectrophotometric analysis
[3] = (§1) Apparent permeability of the compound across bacterial inner membrane mimic POPE/POPG (6:4) in PBS buffer at pH 7.4 incubated for 5 hrs in presence of {8-[N'(cyclopropylmethyl)carbamimidamido]octyl}urea trifluoroacetate salt by PAMPA based UV-Vis spectrophotometric analysis
[4] = Apparent permeability of the compound across bacterial inner membrane mimic pure POPG in PBS buffer at pH 7.4 incubated for 5 hrs by PAMPA based UV-Vis spectrophotometric analysis; type: ADME
[5] = Apparent permeability of the compound across bacterial inner membrane mimic POPE/POPG (6:4) in PBS buffer at pH 7.4 incubated for 5 hrs in presence of 1,1-bis({6-[N'-(cyclopropylmethyl)carbamimidamido]hexyl})-3-{8-[N'-(cyclopropylmethyl)carbamimidamido]octyl}-3-octylurea by PAMPA based UV-Vis spectrophotometric analysis
[6] = (§2) Apparent permeability of the compound across bacterial inner membrane mimic PC-phospholipids in PBS buffer at pH 7.4 incubated for 5 hrs in presence of {8-[N'(cyclopropylmethyl)carbamimidamido]octyl}urea trifluoroacetate salt by PAMPA based UV-Vis spectrophotometric analysis
[7] = Apparent permeability of the compound across bacterial inner membrane mimic POPE/POPG (6:4) in PBS buffer at pH 7.4 incubated for 5 hrs in presence of 1,3-bis(8-aminooctyl)-1,3-bis(8- carbamimidamidooctyl)urea trifluoroacetate salt by PAMPA based UV-Vis spectrophotometric analysis
[8] = as §1, with “1,3,3-tris(8-carbamimidamidooctyl)-1-{8-[N'-(cyclopropylmethyl)carbamimidamido]octyl}urea” for “{8-[N'(cyclopropylmethyl)carbamimidamido]octyl}urea”
[9] = (§3) Apparent permeability of the compound across bacterial inner membrane mimic pure POPG in PBS buffer at pH 7.4 incubated for 5 hrs in presence of {8-[N'(cyclopropylmethyl)carbamimidamido]octyl}urea trifluoroacetate salt by PAMPA based UV-Vis spectrophotometric analysis
[10] = Apparent permeability of the compound across bacterial inner membrane mimic PC-phospholipids in PBS buffer at pH 7.4 incubated for 5 hrs in presence of 1,3-bis(8-aminooctyl)-1,3-bis(8- carbamimidamidooctyl)urea trifluoroacetate salt by PAMPA based UV-Vis spectrophotometric analysis
[11] = as §3, with “1,3,3-tris(8-carbamimidamidooctyl)-1-{8-[N'-(cyclopropylmethyl)carbamimidamido]octyl}urea” for “{8-[N'(cyclopropylmethyl)carbamimidamido]octyl}urea”
[12] = Apparent permeability of the compound across bacterial inner membrane mimic PC-phospholipids in PBS buffer at pH 7.4 incubated for 5 hrs by PAMPA based UV-Vis spectrophotometric analysis; type: ADME
[13] = Apparent permeability of the compound across bacterial inner membrane mimic pure POPG in PBS buffer at pH 7.4 incubated for 5 hrs in presence of 1,3-bis(8-aminooctyl)-1,3-bis(8- carbamimidamidooctyl)urea trifluoroacetate salt by PAMPA based UV-Vis spectrophotometric analysis
[14] = as §2, with “1,3,3-tris(8-carbamimidamidooctyl)-1-{8-[N'-(cyclopropylmethyl)carbamimidamido]octyl}urea” for “{8-[N'(cyclopropylmethyl)carbamimidamido]octyl}urea”
[15] = Apparent permeability of the compound across bacterial inner membrane mimic pure POPG in PBS buffer at pH 7.4 incubated for 5 hrs in presence of 1,3-bis(8-carbamimidamidooctyl)-1,3-bis({8-[N'-(cyclopropylmethyl)carbamimidamido]octyl})urea by PAMPA based UV-Vis spectrophotometric analysis
[16] = Apparent permeability of the compound across bacterial inner membrane mimic POPE/POPG (6:4) in PBS buffer at pH 7.4 incubated for 5 hrs by PAMPA based UV-Vis spectrophotometric analysis; type: ADME
[17] = Apparent permeability of the compound across bacterial inner membrane mimic PC-phospholipids in PBS buffer at pH 7.4 incubated for 5 hrs in presence of 1,1-bis({6-[N'-(cyclopropylmethyl)carbamimidamido]hexyl})-3-{8-[N'-(cyclopropylmethyl)carbamimidamido]octyl}-3-octylurea by PAMPA based UV-Vis spectrophotometric analysis
[18] = Apparent permeability of the compound across bacterial inner membrane mimic POPE/POPG (6:4) in PBS buffer at pH 7.4 incubated for 5 hrs in presence of 1,3-bis(8-carbamimidamidooctyl)-1,3-bis({8-[N'-(cyclopropylmethyl)carbamimidamido]octyl})urea by PAMPA based UV-Vis spectrophotometric analysis

Q: Which Papp at 5 h [1] does the source give for `O=C(N[C@H](CO)[C@H](O)c1ccc([N+](=O)[O-])cc1)C(Cl)Cl` [CHLORAMPHENICOL] here?
A: 6.12 ×10⁻⁶ cm/s

Q: And the Papp at 5 h [2]?
A: 3.39 ×10⁻⁶ cm/s

Q: And the Papp at 5 h [3]?
A: 1.67 ×10⁻⁶ cm/s

Q: And the Papp at 5 h [4]?
A: 0.06 ×10⁻⁶ cm/s

Q: And the Papp at 5 h [5]?
A: 6.64 ×10⁻⁶ cm/s

Q: What about the Papp at 5 h [6] of the same molecule?
A: 0.04 ×10⁻⁶ cm/s

Q: And the Papp at 5 h [7]?
A: 6.11 ×10⁻⁶ cm/s

Q: What about the Papp at 5 h [8] of the same molecule?
A: 6.98 ×10⁻⁶ cm/s

Q: And the Papp at 5 h [9]?
A: 0.08 ×10⁻⁶ cm/s

Q: And the Papp at 5 h [10]?
A: 3.24 ×10⁻⁶ cm/s

Q: What about the Papp at 5 h [11] of the same molecule?
A: 3.78 ×10⁻⁶ cm/s

Q: And the Papp at 5 h [12]?
A: 0.54 ×10⁻⁶ cm/s

Q: What about the Papp at 5 h [13] of the same molecule?
A: 3.14 ×10⁻⁶ cm/s

Q: What about the Papp at 5 h [14] of the same molecule?
A: 4.67 ×10⁻⁶ cm/s

Q: And the Papp at 5 h [15]?
A: 2.18 ×10⁻⁶ cm/s

Q: And the Papp at 5 h [16]?
A: 1.12 ×10⁻⁶ cm/s

Q: What about the Papp at 5 h [17] of the same molecule?
A: 8.73 ×10⁻⁶ cm/s

Q: And the Papp at 5 h [18]?
A: 1.39 ×10⁻⁶ cm/s
